In patent US20110053993A1, “PRODRUGS OF DESAZADESFERROTHIOCIN POLYETHER ANALOGUES AS METAL CHELATION AGENTS” (FERROKIN BIOSCIENCES, INC., priority 2009, published 2011):

Assay: In vitro pharmacokinetic (metabolic) stability in human whole blood
Format: in vitro ADME
Conditions: 5 μM test compound, 37° C., time points 0, 0.5, 1, 4, 6 and 24 hours, LC/MS/MS, percent compound remaining
Procedure: In Vitro Pharmacokinetic Stability Evaluation
Compounds were tested for metabolic stability in human whole blood. Such testing is commonly undertaken prior to or along with advanced preclinical testing in order to identify compounds with desirable pharmacokinetic properties. Into each of 6 centrifuge tubes was added 2 μL of test compound and 198 μL of human whole blood, taken from normal, healthy volunteers, to achieve a final concentration of 5 μM. Tubes were then incubated at 37° C. at approximately 100 rpm on an orbital shaker. One of the tubes was taken at designated time points including 0, 0.5, 1, 4, 6 and 24 hours. The reaction was stopped by the addition of 4 volumes of cold methanol. Samples were centrifuged at 20,000 rpm for 20 minutes to precipitate protein. A 200 μL aliquot of the supernatant was used for LC/MS/MS analysis for each compound at each time point. All experiments were performed in duplicate. The LC system comprised a Shimadzu liquid chromatograph separation system equipped with degasser DGU-20A3, solvent delivery unit LC-20AD, system controller CBM-20A, column oven CTO-10ASVP and CTC Analytics HTC PAL System. Mass spectrometric analysis was performed using an API 4000 instrument from AB Inc. (Canada) with an ESI interface. The data acquisition and control system were created using Analyst 1.5 software from ABI Inc. All calculations were carried out using Microsoft Excel (2003). Percent compound remaining at each time point was estimated by determining the peak areas from extracted ion chromatograms.

SMILES	Half Life [h]
COCCOCCOCCOc1cccc(C2=N[C@@](C)(C(=O)OC(C)C)CS2)c1OC(=O)N(C)c1ccccc1 [Example 4, (S)-isopropyl 2-(3-(2-(2-(2-methoxyethoxy)ethoxy)ethoxy)-2-(methyl(phenyl)carbamoyloxy)phenyl)-4-methyl-4,5-dihydrothiazole-4-carboxylate]	>24
COCCOCCOCCOc1cccc(C2=N[C@@](C)(C(=O)O)CS2)c1OC(=O)N(C)c1ccccc1 [Example 5, (S)-2-(3-(2-(2-(2-methoxyethoxy)ethoxy)ethoxy)-2-(methyl(phenyl)carbamoyloxy)phenyl)-4-methyl-4,5-dihydrothiazole-4-carboxylic acid]	0.5 to 1

Now from value to molecule:

Half Life [h]	SMILES
1 to 4	COCCOCCOCCOc1cccc(C2=N[C@@](C)(C(=O)OC(C)C)CS2)c1O [Example 1, (S)-isopropyl 2-(2-hydroxy-3-(2-(2-(2-methoxyethoxy)ethoxy)ethoxy)phenyl)-4-methyl-4,5-dihydrothiazole-4-carboxylate]
>24	COCCOCCOCCOc1cccc(C2=N[C@@](C)(C(=O)OC(C)C)CS2)c1OC(=O)N1CCCC1 [Example 2, (S)-isopropyl 2-(3-(2-(2-(2-methoxyethoxy)ethoxy)ethoxy)-2-(pyrrolidine-1-carbonyloxy)phenyl)-4-methyl-4,5-dihydrothiazole-4-carboxylate]
1 to 4	COCCOCCOCCOc1cccc(C2=N[C@@](C)(C(=O)O)CS2)c1OC(=O)N1CCCC1 [Example 3, (S)-2-(3-(2-(2-(2-methoxyethoxy)ethoxy)ethoxy)-2-(pyrrolidine-1-carbonyloxy)phenyl)-4-methyl-4,5-dihydrothiazole-4-carboxylic acid]
6 to 24	COCCOCCOCCOc1cccc(C2=N[C@@](C)(C(=O)O)CS2)c1OC(=O)C(C)C [Example 6, (S)-2-(2-(isobutyryloxy)-3-(2-(2-(2-methoxyethoxy)ethoxy)ethoxy)phenyl)-4-methyl-4,5-dihydrothiazole-4-carboxylic acid]
